How the values were obtained:
Assay type in all cases: biochemical
PAD1 = biological target: T1, PAD1 (Homo sapiens, UniProt Q9ULC6); assay: Inactivation kinetics, PAD1; conditions: for kinact/KI: a: single kobs determined, b: from a linear fit; for Fold PAD1 Selectivity: kinact/KI relative to least inhibited isozyme (1.0)
T1 construct: made in house
T1 sequence (Q9ULC6 1-663): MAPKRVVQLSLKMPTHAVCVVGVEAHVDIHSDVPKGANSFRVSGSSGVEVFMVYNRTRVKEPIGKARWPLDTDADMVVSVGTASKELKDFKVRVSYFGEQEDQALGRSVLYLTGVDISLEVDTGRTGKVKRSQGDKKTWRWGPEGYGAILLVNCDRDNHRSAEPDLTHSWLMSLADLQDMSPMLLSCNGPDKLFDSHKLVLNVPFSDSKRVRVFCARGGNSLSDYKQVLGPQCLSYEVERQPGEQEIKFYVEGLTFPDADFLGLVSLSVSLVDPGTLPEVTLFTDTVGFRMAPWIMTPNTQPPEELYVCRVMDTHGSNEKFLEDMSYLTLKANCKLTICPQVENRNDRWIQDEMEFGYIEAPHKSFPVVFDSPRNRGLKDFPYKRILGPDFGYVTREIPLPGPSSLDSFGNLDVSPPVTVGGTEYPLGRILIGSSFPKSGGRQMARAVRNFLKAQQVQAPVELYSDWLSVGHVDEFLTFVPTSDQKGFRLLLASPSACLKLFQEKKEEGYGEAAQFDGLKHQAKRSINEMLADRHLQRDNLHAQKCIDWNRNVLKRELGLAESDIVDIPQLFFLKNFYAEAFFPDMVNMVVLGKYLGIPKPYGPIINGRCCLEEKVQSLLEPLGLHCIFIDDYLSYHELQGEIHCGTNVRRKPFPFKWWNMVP
Protocol: (§1) Inactivation kinetic parameters were determined by incubating PAD1, 2, or 4 (2.0 μM) or PAD3 (5.0 μM) in a pre-warmed (10 min; 37° C.) inactivation mixture (50 mM HEPES, 10 mM CaCl2, and 2 mM DTT, pH 7.6, with a final volume of 60 μL) containing various concentrations of inhibitor. Aliquots were removed at various time points and added to a pre-warmed (10 min, 37° C.) reaction mixture (50 mM HEPES, 50 mM NaCl, 10 mM CaC2, 2 mM DTT, and 10 mM BAEE or 10 mM BAA in the case of PAD3; pH 7.6). After 15 min, reactions were quenched in liquid nitrogen and citrulline production quantified using the COLDER assay. […] In Vitro Labeling of PADs with “Clickable” Probes BB-F-Yne (5u), BB-Cl-Yne (5v) and BIFYne (5w)

PAD2 = biological target: T2, PAD2 (Homo sapiens, UniProt Q9Y2J8); assay: Inactivation kinetics, PAD2; conditions: for kinact/KI: a: single kobs determined, b: from a linear fit, other footnotes: from kinact and KI; for Fold PAD2 Selectivity: kinact/KI relative to least inhibited isozyme (1.0)
T2 construct: made in house
Protocol: as §1

PAD3 = biological target: T3, PAD3 (Homo sapiens, UniProt Q9ULW8); assay: Inactivation kinetics, PAD3; conditions: for kinact/KI: a: single kobs determined; for Fold PAD3 Selectivity: kinact/KI relative to least inhibited isozyme (1.0)
T3 construct: made in house
T3 sequence (Q9ULW8 1-664): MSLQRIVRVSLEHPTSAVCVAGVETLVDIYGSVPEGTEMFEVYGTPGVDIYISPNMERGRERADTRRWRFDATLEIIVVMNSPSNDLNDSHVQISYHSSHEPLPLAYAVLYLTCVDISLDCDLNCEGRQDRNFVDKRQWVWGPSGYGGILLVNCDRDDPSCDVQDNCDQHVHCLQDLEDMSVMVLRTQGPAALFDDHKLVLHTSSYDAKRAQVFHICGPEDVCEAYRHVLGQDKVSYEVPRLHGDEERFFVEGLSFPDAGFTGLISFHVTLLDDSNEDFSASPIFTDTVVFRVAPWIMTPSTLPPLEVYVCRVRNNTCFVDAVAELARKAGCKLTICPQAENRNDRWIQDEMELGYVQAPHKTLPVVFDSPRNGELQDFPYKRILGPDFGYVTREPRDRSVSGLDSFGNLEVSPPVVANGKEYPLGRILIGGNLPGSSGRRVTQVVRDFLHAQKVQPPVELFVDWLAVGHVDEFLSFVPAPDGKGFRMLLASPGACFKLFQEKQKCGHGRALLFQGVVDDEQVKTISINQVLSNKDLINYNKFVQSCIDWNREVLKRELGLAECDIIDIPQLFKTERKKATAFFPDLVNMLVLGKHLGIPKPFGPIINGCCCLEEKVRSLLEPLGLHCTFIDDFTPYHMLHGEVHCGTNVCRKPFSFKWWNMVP
Protocol: as §1

PAD4 = biological target: T4, PAD4 (Homo sapiens, UniProt Q9UM07); assay: Inactivation kinetics, PAD4; conditions: for kinact/KI: a: single kobs determined, b: from a linear fit; for Fold PAD4 Selectivity: kinact/KI relative to least inhibited isozyme (1.0)
T4 construct: made in house
Protocol: as §1

T4 sequence (Q9UM07 whole entry): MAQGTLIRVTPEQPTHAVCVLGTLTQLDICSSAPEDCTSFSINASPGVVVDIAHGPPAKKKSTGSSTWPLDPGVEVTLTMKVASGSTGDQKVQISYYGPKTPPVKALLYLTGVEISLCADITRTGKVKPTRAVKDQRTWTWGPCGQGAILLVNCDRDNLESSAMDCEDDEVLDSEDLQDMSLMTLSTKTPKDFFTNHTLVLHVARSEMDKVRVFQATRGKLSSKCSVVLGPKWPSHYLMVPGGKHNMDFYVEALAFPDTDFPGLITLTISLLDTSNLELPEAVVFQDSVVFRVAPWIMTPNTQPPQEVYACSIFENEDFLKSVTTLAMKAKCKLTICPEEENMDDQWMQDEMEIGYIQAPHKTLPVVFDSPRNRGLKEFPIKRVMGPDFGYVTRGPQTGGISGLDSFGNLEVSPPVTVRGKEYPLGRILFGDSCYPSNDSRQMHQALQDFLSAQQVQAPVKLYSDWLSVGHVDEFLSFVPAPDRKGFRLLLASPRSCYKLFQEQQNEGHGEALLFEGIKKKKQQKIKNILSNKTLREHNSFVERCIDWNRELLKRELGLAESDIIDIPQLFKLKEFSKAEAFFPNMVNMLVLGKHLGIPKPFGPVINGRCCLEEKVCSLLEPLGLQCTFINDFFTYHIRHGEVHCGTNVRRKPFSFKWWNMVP
T2 sequence (Q9Y2J8 whole entry): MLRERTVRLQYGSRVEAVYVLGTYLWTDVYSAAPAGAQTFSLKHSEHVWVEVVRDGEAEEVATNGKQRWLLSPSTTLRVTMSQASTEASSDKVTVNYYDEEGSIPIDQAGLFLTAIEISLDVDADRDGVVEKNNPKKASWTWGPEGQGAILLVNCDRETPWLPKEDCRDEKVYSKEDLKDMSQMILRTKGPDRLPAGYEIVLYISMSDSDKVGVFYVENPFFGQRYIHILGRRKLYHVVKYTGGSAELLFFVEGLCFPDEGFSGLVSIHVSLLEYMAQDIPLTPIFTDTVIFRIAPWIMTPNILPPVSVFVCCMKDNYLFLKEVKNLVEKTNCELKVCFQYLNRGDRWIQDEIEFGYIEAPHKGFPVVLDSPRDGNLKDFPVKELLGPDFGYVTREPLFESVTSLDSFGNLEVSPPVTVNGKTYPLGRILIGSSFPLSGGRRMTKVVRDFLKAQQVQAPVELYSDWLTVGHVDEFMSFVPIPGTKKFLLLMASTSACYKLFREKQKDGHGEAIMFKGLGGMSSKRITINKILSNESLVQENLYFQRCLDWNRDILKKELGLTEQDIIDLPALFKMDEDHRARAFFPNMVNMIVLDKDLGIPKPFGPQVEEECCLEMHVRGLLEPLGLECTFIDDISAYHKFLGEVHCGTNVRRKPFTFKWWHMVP

| kinact/KI (PAD1) [M⁻¹ s⁻¹] | Fold PAD1 Selectivity (PAD1) [fold] | kinact/KI (PAD2) [M⁻¹ s⁻¹] | Fold PAD2 Selectivity (PAD2) [fold] | kinact/KI (PAD3) [M⁻¹ s⁻¹] | Fold PAD3 Selectivity (PAD3) [fold] | kinact/KI (PAD4) [M⁻¹ s⁻¹] | Fold PAD4 Selectivity (PAD4) [fold] | Structure (SMILES) |
| --- | --- | --- | --- | --- | --- | --- | --- | --- |
| 132 | 16 | 8.33 | 1.0 | 163 | 20 | 254 | 31 | N=C(CCl)NCCC[C@H](NC(=O)c1ccccc1)c1nc2ccccc2[nH]1 [Compound 5b, N1-benzoyl-N5-(2-chloro-1-iminoethyl)-1-(1H-benzo[d]imidazol-2-yl)-L-ornithine] |
| 75 | 9.5 | 7.92 | 1.0 | 15 | 1.9 | 142 | 18 | N=C(CF)NCCC[C@H](NC(=O)c1ccccc1)c1nc2ccccc2[nH]1 [Compound 5a, N1-benzoyl-N5-(2-fluoro-1-iminoethyl)-1-(1H-benzo[d]imidazol-2-yl)-L-ornithine] |
| 1530 | 42 | 292 | 8.0 | 138 | 3.8 | 36.3 | 1.0 | COc1cccc2[nH]c([C@H](CCCNC(=N)CF)NC(=O)c3cccc4c3C(=O)NC4)nc12 [Compound 7i, N1-(3-oxoisoindoline)benzol-N5-(2-fluoro-1-iminoethyl)-1-(4-methoxy-1H-benzo[d]imidazol-2-yl)-L-omithine] |
| 497 | 8.9 | 1430 | 26 | 57.8 | 1.0 | 55.8 | 1.0 | CCOc1cccc2c1nc([C@H](CCCNC(=N)CF)NC(=O)c1cccc3c1C(=O)N(CC)C3)n2C [Compound 8m, N1-(2-ethyl-3-oxoisoindoline)benzoyl-N5-(2-fluoro-1-iminoethyl)-1-(4-ethoxy-1-methyl-benzo[d]imidazol-2-yl)-L-ornithine] |
| 6.92 | 1.1 | 14.6 | 2.3 | 6.25 | 1.0 | 21.7 | 3.5 | C#Cc1ccc(-c2ccc(C(=O)N[C@@H](CCCNC(=N)CCl)c3nc4ccccc4[nH]3)cc2)cc1 [Compound 5v, N1-4′-ethynyl-[1,1′-Phenyl]benzol-N5-(2-chloro-1-iminoethyl)-1-(1H-benzo[d]imidazol-2-yl)-L-ornithine] |
| 952 | 18 | 752 | 14 | 114 | 2.1 | 54.2 | 1.0 | CCN1Cc2cccc(C(=O)N[C@@H](CCCNC(=N)CCl)c3nc4ccccc4n3CC)c2C1=O [Compound 8f, N1-(2-ethyl-3-oxoisoindoline)benzoyl-N5-(2-chloro-1-iminoethyl)-1-(1-ethyl-benzo[d]imidazol-2-yl)-L-ornithine] |
| 302 | 12 | 1090 | 43 | 138 | 5.5 | 25.2 | 1.0 | CCOc1cccc2c1nc([C@H](CCCNC(=N)CCl)NC(=O)c1cccc3c1C(=O)N(CC)C3)n2C [Compound 8n, N1-(2-ethyl-3-oxoisoindoline)benzoyl-N5-(2chloro-1-iminoethyl)-1-(4-ethoxy-1-methyl-benzo[d]imidazol-2-yl)-L-ornithine] |
| 3010 | 6.5 | 1090 | 2.3 | 467 | 1.0 | 968 | 2.1 | N=C(CCl)NCCC[C@H](NC(=O)c1cccc2c1C(=O)NC2)c1nc2ccccc2[nH]1 [Compound 7b, N1-(3-oxoisoindoline)benzol-N5-(2-chloro-1-iminoethyl)-1-(1H-benzo[d]imidazol-2-yl)-L-ornithine] |
| 1010 | 21 | 780 | 16 | 214 | 4.4 | 48.8 | 1.0 | CCn1c([C@H](CCCNC(=N)CCl)NC(=O)c2cccc3c2C(=O)NC3)nc2cc(OC)ccc21 [Compound 7v, N1-(3-oxoisoindoline)benzol-N5-(2-chloro-1-iminoethyl)-1-(5-methoxy-1-ethyl-benzo[d]imidazol-2-yl)-L-ornithine] |
| 508 | 5.3 | 95.5 | 1.0 | 120 | 1.3 | 354 | 3.7 | N=C(CCl)NCCC[C@H](NC(=O)c1ccc(-c2ccc(F)cc2)cc1)c1nc2cc(F)c(F)cc2[nH]1 [Compound 5t, N1-4′-F-[1,1′-Phenyl]benzoyl-N5-(2-chloro-1-iminoethyl)-1-(5,6-difluoro-1H-benzo[d]imidazol-2-yl)-L-omithine] |
| 31.2 | 2.4 | 132 | 10 | 48.3 | 3.7 | 13.2 | 1.0 | COc1cccc2c1nc([C@H](CCCNC(=N)CF)NC(=O)c1ccc(-c3ccccc3)cc1)n2C [Compound 5m, N1-[1,4′-Phenyl]benzoyl-N5-(2-fluoro-1-iminoethyl)-1-(4-methoxy-1-methyl-benzo[d]imidazol-2-yl)-L-omithine] |
| 25 | 1.9 | 13.1 | 1.0 | 46.7 | 3.6 | 108 | 8.3 | N=C(CF)NCCC[C@H](NC(=O)c1ccc2ccccc2c1)c1nc2ccccc2[nH]1 [Compound 5c] |
| 275 | 11 | 25 | 1.0 | 108 | 4.3 | 405 | 16 | N=C(CF)NCCC[C@H](NC(=O)c1ccccc1C(=O)O)c1nc2ccccc2[nH]1 [Compound 6a, N1-(2-Carboxyl)benzol-N5-(2-fluoro-1-iminoethyl)-1-(1H-benzo[d]imidazol-2-yl)-L-ornithine] |
| 719 | 6.8 | 1160 | 11 | 228 | 2.2 | 106 | 1.0 | COc1cccc2c1nc([C@H](CCCNC(=N)CCl)NC(=O)c1cccc3c1C(=O)N(C)C3)n2C [8b′] |
